According to ChEMBL document CHEMBL1147406, “Polar substitutions in the benzenesulfonamide ring of celecoxib afford a potent 1,5-diarylpyrazole class of COX-2 inhibitors” (Bioorg Med Chem Lett, 2004):

Key:
[1] = biological target: T1, Prostaglandin G/H synthase 2 (Homo sapiens, UniProt P35354); experiment: Inhibitory activity against human Prostaglandin G/H synthase 2 expressed in sf-9 cells infected with baculovirus; type: cell-based, Sf9
T1 sequence (P35354 whole entry): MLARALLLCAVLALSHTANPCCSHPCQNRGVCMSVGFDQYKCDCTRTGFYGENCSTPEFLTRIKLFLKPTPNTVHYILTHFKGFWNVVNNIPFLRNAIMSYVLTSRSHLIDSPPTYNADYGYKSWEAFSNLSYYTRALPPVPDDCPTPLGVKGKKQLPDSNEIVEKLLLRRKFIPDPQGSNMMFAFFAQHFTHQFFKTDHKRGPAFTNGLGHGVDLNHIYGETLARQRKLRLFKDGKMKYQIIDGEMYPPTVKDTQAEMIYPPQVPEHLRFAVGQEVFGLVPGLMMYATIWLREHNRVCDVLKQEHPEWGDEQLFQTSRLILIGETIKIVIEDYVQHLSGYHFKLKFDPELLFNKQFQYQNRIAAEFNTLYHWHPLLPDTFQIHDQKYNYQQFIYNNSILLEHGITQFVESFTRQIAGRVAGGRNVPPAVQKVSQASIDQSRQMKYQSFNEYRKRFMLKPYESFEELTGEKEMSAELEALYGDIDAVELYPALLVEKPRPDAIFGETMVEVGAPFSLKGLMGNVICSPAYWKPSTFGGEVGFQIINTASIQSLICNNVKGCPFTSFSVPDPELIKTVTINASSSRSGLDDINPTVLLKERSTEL

[2] = biological target: T2, Prostaglandin G/H synthase 1 (Ovis aries, UniProt P05979)
T2 sequence (P05979 whole entry): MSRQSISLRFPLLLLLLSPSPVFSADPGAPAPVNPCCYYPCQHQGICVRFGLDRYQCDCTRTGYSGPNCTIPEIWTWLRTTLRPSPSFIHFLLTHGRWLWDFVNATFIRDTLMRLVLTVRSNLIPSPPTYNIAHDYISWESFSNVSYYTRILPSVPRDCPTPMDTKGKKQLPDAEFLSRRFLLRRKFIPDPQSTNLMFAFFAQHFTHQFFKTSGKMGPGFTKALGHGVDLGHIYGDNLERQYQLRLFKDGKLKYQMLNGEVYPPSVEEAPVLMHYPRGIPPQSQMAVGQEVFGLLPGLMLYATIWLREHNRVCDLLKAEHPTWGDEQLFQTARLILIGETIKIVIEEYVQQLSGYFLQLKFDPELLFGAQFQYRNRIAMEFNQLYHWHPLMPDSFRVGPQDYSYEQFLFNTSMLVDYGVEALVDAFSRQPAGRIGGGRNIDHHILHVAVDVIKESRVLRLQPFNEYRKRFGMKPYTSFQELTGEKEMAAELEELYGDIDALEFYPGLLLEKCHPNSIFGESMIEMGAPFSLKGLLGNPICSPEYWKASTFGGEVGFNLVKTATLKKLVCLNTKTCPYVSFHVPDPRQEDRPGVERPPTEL

[3] = biological target: T3, Prostaglandin G/H synthase 2 (Homo sapiens) (UniProt P35354); experiment: Inhibitory activity of compound against human Prostaglandin G/H synthase 2 expressed in sf-9 cells infected with baculovirus at 100 uM concentration; conditions: Sf9
T3 sequence (whole entry): T1 sequence (P35354 whole entry)

[4] = biological target: T4, Prostaglandin G/H synthase 1 (Ovis aries) (UniProt P05979); experiment: Inhibitory activity against prostaglandin G/H synthase 1 from ram seminal vesicles at 100 uM concentration
T4 sequence (whole entry): T2 sequence (P05979 whole entry)

[5] = biological target: T3, Prostaglandin G/H synthase 2 (Homo sapiens); experiment: Inhibitory activity of compound against human cyclooxygenase-2 expressed in sf-9 cells infected with baculovirus at 10 uM concentration; conditions: Sf9
[6] = biological target: T4, Prostaglandin G/H synthase 1 (Ovis aries); experiment: Inhibitory activity of compound against prostaglandin G/H synthase 1 from ram seminal vesicles at 10 uM concentration
[7] = biological target: T4, Prostaglandin G/H synthase 1 (Ovis aries); experiment: Inhibitory activity of compound against Prostaglandin G/H synthase 1 from ram seminal vesicles at 10 uM concentration

Row | IC50 [1] | IC50 [2] | SMILES | further results
1 | 0.728 µM | 327 µM | Cc1cccc(-c2cc(C(F)(F)F)nn2-c2ccc(S(N)(=O)=O)c(CO)c2)c1 | 
2 | 2.8 µM | 100 µM | COc1ccc(-c2cc(C(F)(F)F)nn2-c2ccc(S(N)(=O)=O)c(CNC(C)=O)c2)cc1 | 
3 |  |  | CSc1ccc(-c2cc(C(F)(F)F)nn2-c2ccc(S(C)(=O)=O)c(CO)c2)cc1 | inhibition [3]: 45%; inhibition [4]: 0%
4 | 0.57 µM | 34.6 µM | CCC(=O)OCc1cc(-n2nc(C(F)(F)F)cc2-c2ccc(C)cc2)ccc1S(N)(=O)=O | 
5 |  |  | COc1ccc(-c2cc(C(F)(F)F)nn2-c2ccc3c(c2)COS3(=O)=O)cc1 | inhibition [3]: 36%; inhibition [4]: 92%
6 | 3.3 µM | 500 µM | NS(=O)(=O)c1ccc(-n2nc(C(F)(F)F)cc2-c2ccccc2F)cc1CO | 
7 | 0.76 µM | 278 µM | Cc1ccc(-c2cc(C(F)(F)F)nn2-c2ccc(S(N)(=O)=O)c(CO)c2)cc1 | 
8 | 1.95 µM | 465 µM | NS(=O)(=O)c1ccc(-n2nc(C(F)(F)F)cc2-c2cccc(Cl)c2)cc1CO | 
9 |  |  | COc1ccc(-c2cc(C(F)(F)F)nn2-c2ccc3c(c2)CNS3(=O)=O)cc1 | inhibition [3]: 12%; inhibition [4]: 85%
10 |  |  | NS(=O)(=O)c1ccc(-n2nc(C(F)(F)F)cc2-c2ccc(O)cc2)cc1CO | inhibition [5]: 19%; inhibition [6]: 0%
11 | 1.99 µM | 500 µM | NS(=O)(=O)c1ccc(-n2nc(C(F)(F)F)cc2-c2ccc(F)cc2)cc1CO | 
12 |  |  | CCOC(=O)OCc1cc(-n2nc(C(F)(F)F)cc2-c2ccc(C)cc2)ccc1S(C)(=O)=O | inhibition [5]: 0%; inhibition [7]: 9%
13 | 28.6 µM | 1150 µM | COc1ccccc1-c1cc(C(F)(F)F)nn1-c1ccc(S(N)(=O)=O)c(CO)c1 | 
14 | 0.365 µM | 63 µM | COc1ccc(-c2cc(C(F)(F)F)nn2-c2ccc(S(N)(=O)=O)c(CO)c2)cc1 | 
15 | 6.85 µM | 4.62 µM | CC(=O)NCc1cc(-n2nc(C(F)(F)F)cc2-c2ccc(C)cc2)ccc1S(N)(=O)=O | 
16 | 3.45 µM | 1090 µM | NS(=O)(=O)c1ccc(-n2nc(C(F)(F)F)cc2-c2ccccc2)cc1CO | 

Row | IC50 [1] | IC50 [2] | SMILES | further results
17 | 3.2 µM | 300 µM | COc1ccc(-c2cc(C(F)(F)F)nn2-c2ccc(S(C)(=O)=O)c(CO)c2)cc1 | 
18 | 5 µM | 100 µM | CC(=O)NCc1cc(-n2nc(C(F)(F)F)cc2-c2ccc(Cl)cc2)ccc1S(N)(=O)=O | 
19 |  |  | Cc1ccc(-c2cc(C(F)(F)F)nn2-c2ccc3c(c2)CCS3(=O)=O)cc1 | inhibition [3]: 10%; inhibition [4]: 90%
20 | 7.05 µM | 1000 µM | NS(=O)(=O)c1ccc(-n2nc(C(F)(F)F)cc2-c2cccc(F)c2)cc1CO | 
21 |  |  | CC(C)Cc1ccc(-c2cc(C(F)(F)F)nn2-c2ccc(S(N)(=O)=O)c(CO)c2)cc1 | inhibition [3]: 14%; inhibition [4]: 4%
22 |  |  | CS(=O)(=O)c1ccc(-c2cc(C(F)(F)F)nn2-c2ccc(S(N)(=O)=O)c(CO)c2)cc1 | inhibition [3]: 29%; inhibition [4]: 68%
23 | 0.592 µM | 230 µM | NS(=O)(=O)c1ccc(-n2nc(C(F)(F)F)cc2-c2ccc(Br)cc2)cc1CO | 
24 | 51.2 µM | 300 µM | CCSc1ccc(-c2cc(C(F)(F)F)nn2-c2ccc(S(N)(=O)=O)c(CO)c2)cc1 | 
25 |  |  | CSc1ccc(-c2cc(C(F)(F)F)nn2-c2ccc(S(N)(=O)=O)c(C(C)O)c2)cc1 (stereo not given) | inhibition [3]: 50%; inhibition [4]: 6%
26 |  |  | COc1ccc(-c2cc(C(F)(F)F)nn2-c2ccc3c(c2)CCS3(=O)=O)cc1 | inhibition [3]: 36%; inhibition [4]: 86%
27 |  |  | COc1ccc(-c2cc(C(F)(F)F)nn2-c2ccc(S(C)(=O)=O)c(C=O)c2)cc1 | inhibition [3]: 100%; inhibition [5]: 44%; inhibition [4]: 92%
28 | 1.38 µM | 500 µM | CCc1ccc(-c2cc(C(F)(F)F)nn2-c2ccc(S(N)(=O)=O)c(CO)c2)cc1 | 
29 | 0.712 µM | 336 µM | NS(=O)(=O)c1ccc(-n2nc(C(F)(F)F)cc2-c2ccc(Cl)cc2)cc1CO | 
30 | 6.3 µM | 512 µM | NS(=O)(=O)c1ccc(-n2nc(C(F)(F)F)cc2-c2ccccc2Cl)cc1CO | 
31 | 0.901 µM | 135 µM | CCOc1ccc(-c2cc(C(F)(F)F)nn2-c2ccc(S(N)(=O)=O)c(CO)c2)cc1 | 
32 | 0.235 µM | 59.7 µM | CSc1ccc(-c2cc(C(F)(F)F)nn2-c2ccc(S(N)(=O)=O)c(CO)c2)cc1 | 
